{"source": "patent US20060210479A1", "about": "(Dow Global Technologies Inc., priority 2004, published 2006)", "key": {"[1]": {"test_system": "Caco-2 cell line", "test": "Chelate permeability: fluorescence of cytoplasm and membrane fractions", "type": "cell-based, human"}, "[2]": {"test_system": "PZ-HPV-7 normal cell line", "test": "Chelate permeability: fluorescence of cytoplasm and membrane fractions", "type": "cell-based"}, "[3]": {"test_system": "HEK293 cells, normal (non-induced)", "test": "Permeability of chelates to HEK293 cells, fluorescence of fractions", "type": "cell-based, human", "settings": "HEK293 Normal; 1 mM chelate, 2 hours", "procedure": "(§1) The human kidney transformed HEK293 cells (obtained from the ATCC) were grown in Eagle's Minimum Essential Medium (EMEM) supplemented with 10% (v/v) heat-inactivated fetal bovine serum, sodium pyruvate, nonessential amino acids and antibiotics in a humidified 5% CO2 atmosphere at 37° C. Medium and supplements were purchased from Gibco bRL (Grand Island, N.Y.). Etoposide was obtained from Sigma (St. Louis, Mo.) and prepared as 20 mM solution in dimethyl sulfoxide (DMSO). For treatments, etoposide was applied to the HEK293 cultures at 1:1000 dilution (final concentration of 20 μM) after cell became 75% confluent. As a control, cells were fed with medium containing 0.1% DMSO in the absence of etoposide. After treatment with etoposide, cells were incubated in a humidified 5% CO2 at 37° C. for 24 hours. HEK293 cells were collected by removing treatment medium and washed 2 times with 10 mM HEPES buffer. Final cell pellets were resuspended in a small amount of HEPES and stored at 4° C. for further study.\n(§2) Cells were grown to confluence in T-150 flasks (about 2×10^6 cells). […] After treatment, the chelate or analogue supernatant was discarded and the cells were rinsed three times at room temperature with 10 mM HEPES. Cells were then removed from the flask by manual scraping. Cells were transferred to a 50-mL conical tube and centrifuged (400×g) for 5 minutes and the test material removed. Remaining cells were rinsed twice with cold 10 mM HEPES. Cells were used in cell binding assays."}, "[4]": {"test_system": "etoposide-induced (apoptotic) HEK293 cells", "test": "Permeability of chelates to apoptotic cells, fluorescence of fractions", "type": "cell-based, human", "procedure": "as §1, §2"}, "[5]": {"test_system": "C33-A cells", "settings": "1 mM EuQCTME, up to 240 min", "procedure": "(§3) Cells were counted and plated in a 20×100 mm cell culture dish at a density of about 2×10^6 cells.\n(§4) After incubation cells were collected by trypsinization and gently centrifuged (about […]) for 10 minutes. The cell supematant was discarded, and the resulting cell pellet was washed in cold PBS (phosphate buffered saline). The cell pellet was centrifuged again (about 2000 rpm) for 10 minutes. The PBS supernatant was discarded and the cold PBS wash was repeated and centrifuged as above. After discarding the PBS supernatant, the resulting cell pellet was used for NE-PER extraction (Pierce, Rockford, Ill.) according to the manufacturer's instructions.\n(§5) The resulting nuclear and cytoplasmic fractions from each time point were then placed into the wells of a 96-well white plate. Due to the volume of lysate available for measurement, the fractions were diluted 1:4 in HEPES binding buffer for a total volume of 100 liL. […] The following settings were optimized for measurement: excitation at 320 nm (band width: 35 nm), emission at 595 nm (bandwidth: 35 nm), gain 110, lag time 1 μs, integration time 2000 μs, # of flashes: 1.\n(§6) Because lysate volume was in limited quantity and protein concentration was relatively low, absorbances for protein measurements were read using the formula of Kalckar (1.45 OD280-0.74OD260=mg protein/mL). Each time point measurement above (in RFU) was normalized to its corresponding protein content and recalculated as RFU/μg protein."}, "[6]": {"test_system": "Caco-2 cells", "settings": "1 mM EuQCTME, up to 240 min", "procedure": "as §3, §4, §5, §6"}, "[7]": {"test_system": "DU-145 cells", "settings": "1 mM EuQCTME, up to 240 min", "procedure": "as §3, §4, §5, §6"}, "[8]": {"test_system": "HLAC cells", "settings": "1 mM EuQCTME, up to 240 min", "procedure": "as §3, §4, §5, §6"}, "[9]": {"test_system": "NCM460 cells", "settings": "1 mM EuQCTME, up to 240 min", "procedure": "as §3, §4, §5, §6"}, "[10]": {"test_system": "SK-MES cells", "settings": "1 mM EuQCTME, up to 240 min", "procedure": "as §3, §4, §5, §6"}, "[11]": {"test_system": "DMBA-induced tumor tissue of buccal cheek pouch", "settings": "2 mM solution topical, 10 minutes; for Fluorescence/mg Cytoplasm / Fluorescence/mg Membrane: readings Adjusted Volume CNT*mm2"}, "[12]": {"test_system": "normal cheek pouch tissue", "settings": "2 mM solution topical, 10 minutes, readings Adjusted Volume CNT*mm2"}, "[13]": {"test_system": "SK-MES cells", "settings": "for EuQCTME Cell Binding (fluorescence per well): 1 mM"}, "[14]": {"test_system": "NCM-460 cells", "settings": "for EuQCTME Cell Binding (fluorescence per well): 1 mM"}, "[15]": {"test_system": "Caco-2 cells", "settings": "1 mM"}, "[16]": {"test_system": "Caco-2 cells", "settings": "1 mM, 1 h", "description": "(§7) Before images were captured, an aliquot of the HEPES binding buffer was mounted on a slide and observed for any background fluorescence."}, "[17]": {"test_system": "NCM460 cells", "settings": "1 mM, 1 h", "description": "as §7"}, "[18]": {"target": "HSPC194 protein (Homo sapiens, UniProt Q9P0S9)", "sequence (Q9P0S9 whole entry)": "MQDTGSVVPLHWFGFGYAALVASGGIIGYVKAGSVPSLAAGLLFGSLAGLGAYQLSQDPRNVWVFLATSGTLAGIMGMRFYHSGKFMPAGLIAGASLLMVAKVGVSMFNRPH", "test": "Elution of HSPC194 from affinity support column by compounds", "settings": "symbols not defined", "description": "Purified HSPC194 protein was captured on an affinity support column. The unbound contaminants, which have no affinity for the ligand, are washed through the column, leaving the HSPC194 protein bound to the matrix."}, "[19]": {"settings": "PZ-HVP-7, 1 mM chelate, 2 h, Table 4"}}, "note": "Read-outs that look alike come from different tables or passages of the source."}
{"smiles": "CCOP(=O)([O-])CN1CCN(Cc2ccc3cc(C)ccc3n2)CCN(CP(=O)([O-])OCC)CCN(CP(=O)([O-])OCC)CC1.[Eu+3]", "note": "[Eu-QCTME, Eu(III) N-(6-methyl-2-quinolylmethyl)-N′,N″,N′″-tris(methylenephosphonic acid ethyl ester)-1,4,7,10-tetraazacyclododecane]", "values": [{"measurement": "fluorescence in the membrane fractions, dose response", "setting": "[1]; 0-2000 μM, 2 hours", "value": "detectable quantity of fluorescence"}, {"measurement": "fluorescence in the cytoplasm, dose response", "setting": "[1]; 0-2000 μM, 2 hours, compared to PZ-HPV-7", "value": "significant increases in fluorescence"}, {"measurement": "Fluorescence/mg Cytoplasm", "setting": "[1]; 1 mM chelate, 2 h, Table 4", "value": 4339}, {"measurement": "Fluorescence/mg Membrane", "setting": "[1]; 1 mM chelate, 2 h, Table 4", "value": 2524}, {"measurement": "detectability in normal cells", "setting": "[2]; PZ-HPV-7", "value": "significantly less detectable"}, {"measurement": "Fluorescence/mg Cytoplasm", "setting": "[2]; [19]", "value": 2247}, {"measurement": "Fluorescence/mg Membrane", "setting": "[2]; [19]", "value": 2293}, {"measurement": "Fluorescence/mg Membrane", "setting": "[3]", "value": 1799}, {"measurement": "permeability to apoptotic induced HEK293 cells", "setting": "[4]", "value": "permeable"}, {"measurement": "Fluorescence/mg Membrane", "setting": "[4]; HEK293 Apoptotic (etoposide 20 μM, 24 hours), 1 mM chelate, 2 hours", "value": 1697}, {"measurement": "nuclear signal", "setting": "[5]", "value": "very low"}, {"measurement": "nuclear and cytoplasmic fluorescence", "setting": "[6]", "value": "approximately 40 pg EuQCTME per μg protein"}, {"measurement": "nuclear and cytoplasmic fluorescence", "setting": "[7]", "value": "approximately 40 pg EuQCTME per μg protein"}, {"measurement": "nuclear signal", "setting": "[8]", "value": "rapidly declined after an apparent initial burst"}, {"measurement": "cytoplasm-associated fluorescence", "setting": "[9]", "value": "< 10", "unit": "pg EuQCTME per μg protein"}, {"measurement": "nuclear signal", "setting": "[9]", "value": "high nuclear signal"}, {"measurement": "nuclear and cytoplasmic fluorescence", "setting": "[10]", "value": "approximately 40 pg EuQCTME per μg protein"}, {"measurement": "fluorescence in the cytoplasm of tumor tissue compared to normal tissue", "setting": "[11]", "value": "significantly greater fluorescence"}, {"measurement": "Fluorescence/mg Cytoplasm", "setting": "[11]; Tumor 1", "value": 3524}, {"measurement": "Fluorescence/mg Membrane", "setting": "[11]; Tumor 1", "value": 1670}, {"measurement": "Fluorescence/mg Cytoplasm", "setting": "[11]; Tumor 2", "value": 3659}, {"measurement": "Fluorescence/mg Membrane", "setting": "[11]; Tumor 2", "value": 1676}, {"measurement": "Fluorescence/mg Cytoplasm", "setting": "[12]; Normal 1", "value": 1344}, {"measurement": "Fluorescence/mg Membrane", "setting": "[12]; Normal 1", "value": 1348}, {"measurement": "Fluorescence/mg Cytoplasm", "setting": "[12]; Normal 2", "value": 1369}, {"measurement": "Fluorescence/mg Membrane", "setting": "[12]; Normal 2", "value": 1374}, {"measurement": "EuQCTME Cell Binding (fluorescence per well)", "setting": "[13]; 2 min", "value": "21,983"}, {"measurement": "EuQCTME Cell Binding (fluorescence per well)", "setting": "[13]; 5 min", "value": "11,756"}, {"measurement": "EuQCTME Cell Binding (fluorescence per well)", "setting": "[13]; 15 min", "value": "8,588"}, {"measurement": "EuQCTME Cell Binding (fluorescence per well)", "setting": "[13]; 30 min", "value": "7,237"}, {"measurement": "EuQCTME Cell Binding (fluorescence per well)", "setting": "[13]; 45 min", "value": "9,513"}, {"measurement": "EuQCTME Cell Binding (fluorescence per well)", "setting": "[13]; 60 min", "value": "5,358"}, {"measurement": "EuQCTME Cell Binding (fluorescence per well)", "setting": "[13]; 120 min", "value": "8,159"}, {"measurement": "EuQCTME Cell Binding (fluorescence per well)", "setting": "[13]; 180 min", "value": "5,682"}, {"measurement": "EuQCTME Cell Binding (fluorescence per well)", "setting": "[13]; 240 min", "value": "15,625"}, {"measurement": "Totals: Normalized total area under each curve (AUC)", "setting": "[13]; over 240 min", "value": 28}, {"measurement": "EuQCTME Cell Binding (fluorescence per well)", "setting": "[14]; 2 min", "value": "2,757"}, {"measurement": "EuQCTME Cell Binding (fluorescence per well)", "setting": "[14]; 5 min", "value": "3,325"}, {"measurement": "EuQCTME Cell Binding (fluorescence per well)", "setting": "[14]; 15 min", "value": "14,042"}, {"measurement": "EuQCTME Cell Binding (fluorescence per well)", "setting": "[14]; 30 min", "value": "18,535"}, {"measurement": "EuQCTME Cell Binding (fluorescence per well)", "setting": "[14]; 45 min", "value": "18,737"}, {"measurement": "EuQCTME Cell Binding (fluorescence per well)", "setting": "[14]; 60 min", "value": "20,666"}, {"measurement": "EuQCTME Cell Binding (fluorescence per well)", "setting": "[14]; 120 min", "value": "2,388"}, {"measurement": "EuQCTME Cell Binding (fluorescence per well)", "setting": "[14]; 180 min", "value": "1,598"}, {"measurement": "EuQCTME Cell Binding (fluorescence per well)", "setting": "[14]; 240 min", "value": "16,682"}, {"measurement": "Totals: Normalized total area under each curve (AUC)", "setting": "[14]; over 240 min", "value": 44}, {"measurement": "EuQCTME Cell Binding (fluorescence per well)", "setting": "[15]; 2 min", "value": "4,708"}, {"measurement": "EuQCTME Cell Binding (fluorescence per well)", "setting": "[15]; 5 min", "value": "3,391"}, {"measurement": "EuQCTME Cell Binding (fluorescence per well)", "setting": "[15]; 15 min", "value": "6,806"}, {"measurement": "EuQCTME Cell Binding (fluorescence per well)", "setting": "[15]; 30 min", "value": "11,168"}, {"measurement": "EuQCTME Cell Binding (fluorescence per well)", "setting": "[15]; 45 min", "value": "10,872"}, {"measurement": "EuQCTME Cell Binding (fluorescence per well)", "setting": "[15]; 60 min", "value": "21,176"}, {"measurement": "EuQCTME Cell Binding (fluorescence per well)", "setting": "[15]; 120 min", "value": "29,389"}, {"measurement": "EuQCTME Cell Binding (fluorescence per well)", "setting": "[15]; 180 min", "value": "31,510"}, {"measurement": "EuQCTME Cell Binding (fluorescence per well)", "setting": "[15]; 240 min", "value": "4,575"}, {"measurement": "localization by confocal microscopy", "setting": "[16]", "value": "predominantly cytoplasmic localization"}, {"measurement": "uptake by confocal microscopy", "setting": "[17]", "value": "only a minimal uptake"}, {"measurement": "Elution of HSPC194 10 μM", "setting": "[18]; compound at 10 μM", "value": 0}, {"measurement": "Elution of HSPC194 50 μM", "setting": "[18]; compound at 50 μM", "value": 0}]}
